Where two headings read alike, the source gives them in different places.
Molecular target: T1, α-synuclein (Homo sapiens, UniProt P37840, A91C)
T1 construct: gene SNCA
Assay: ASYN-CONA on-bead aggregation assay (confocal bead ring intensity, […] EtOH, […] h)
Assay type: biochemical

IC50 (read-out: IC50) | IC50 | SMILES
502 ± 360 µM | – | CO[C@H]1/C=C/O[C@@]2(C)Oc3c(C)c(O)c4c(O)c(c(/C=N/N5CCN(C)CC5)c(O)c4c3C2=O)NC(=O)/C(C)=C\C=C\[C@H](C)[C@H](O)[C@@H](C)[C@@H](O)[C@@H](C)[C@H](OC(C)=O)[C@@H]1C [rifampicin]
2.76 ± 0.89 µM | – | COc1cc(/C=C/C(=O)CC(=O)/C=C/c2ccc(O)c(OC)c2)ccc1O [curcumin]
– | 4.32 ± 0.6 µM | O=c1cc(-c2ccccc2)oc2cc(O)c(O)c(O)c12 [baicalein]

From paper PMC6534341, “α-Synuclein–Confocal Nanoscanning (ASYN-CONA), a Bead-Based Assay for Detecting Early-Stage α-Synuclein Aggregation” (Analytical Chemistry, 2019)
